Source: patent US20200199647A1, “ASSAY FOR SCREENING MODULATORS OF HOLOPHOSPHATASE ACTIVITY” (UNITED KINGDOM RESEARCH AND INNOVATION, priority 2017, published 2020)

Columns and labels:
HeLa cells = experiment: Cytoprotection of HeLa cells from Tunicamycin (ER) stress; assay type: cell-based; conditions: 250 ng/ml Tunicamycin, 72 h
Description: HeLa cells (40,000 cells/ml) were plated in a 96-well plate and treated with different concentrations of compound, as indicated, or DMSO vehicle in the presence of 250 ng/ml Tunicamycin for 72 h. To monitor cell death, 1/2000 dilution of the CellTox green dye (Promega) was added to the media. The growth of the cells was monitored over time and pictures taken every 2 h with the IncuCyte ZOOM system and analysed by the IncuCyte ZOOM software (Essen BioScience). To compare different compounds and their cytoprotective effect, a growth ratio for each time point was calculated:
Growth ratio=(Phase confluency (%) at X hours)/(Phase confluency (%) at 0 hours)
The end point of the assay (72 h) was chosen for generating the graphs.

R15A = target: T1, R15A (Homo sapiens, UniProt O75807); experiment: Light scattering to monitor aggregation of R15A; conditions: 1 mM compound, 5 μM R15A, 10 min, 20° C.
T1 construct: PPP1R15A amino acids 325-636 (R15A); His6 (C); made in house; host or cells: E. coli BL21 pLysS
T1 sequence (O75807 325-636, stated change not applied): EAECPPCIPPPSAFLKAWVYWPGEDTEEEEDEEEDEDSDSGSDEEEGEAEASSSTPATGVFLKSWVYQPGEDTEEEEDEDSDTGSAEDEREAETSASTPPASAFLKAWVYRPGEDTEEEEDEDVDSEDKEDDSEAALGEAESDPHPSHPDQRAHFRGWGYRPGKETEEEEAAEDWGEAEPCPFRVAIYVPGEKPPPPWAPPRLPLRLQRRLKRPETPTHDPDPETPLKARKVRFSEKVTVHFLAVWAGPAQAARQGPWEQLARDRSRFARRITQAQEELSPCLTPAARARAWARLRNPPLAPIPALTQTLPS
Description: Samples were incubated for 10 min at RT. […] Therefore, light scattering was measured at 380 nm emission, 380 nm absorption to monitor the presence of aggregates. For each sample, 100 data points were collected over a period of 10 min, at 20° C., with constant stirring.

[1] = target: T2, PP1 (1 μM) in the presence of R15A (Homo sapiens, UniProt O75807); experiment: In vitro dephosphorylation of P-eIF2α using stoichiometric PP1c (1 μM) with R15A; assay type: biochemical; conditions: 1 μM PP1c, 1 μM P-eIF2α, 30° C., 16 h; compounds 100 μM
T2 construct: PPP1R15A amino acids 325-636 (R15A); His6 (C); made in house; host or cells: E. coli BL21 pLysS (R15A, eIF2α); E. coli BL21/pGro7 (PP1c)
T2 sequence (O75807 325-636, stated change not applied): as above
T2 sequence (P62136 7-330 partner): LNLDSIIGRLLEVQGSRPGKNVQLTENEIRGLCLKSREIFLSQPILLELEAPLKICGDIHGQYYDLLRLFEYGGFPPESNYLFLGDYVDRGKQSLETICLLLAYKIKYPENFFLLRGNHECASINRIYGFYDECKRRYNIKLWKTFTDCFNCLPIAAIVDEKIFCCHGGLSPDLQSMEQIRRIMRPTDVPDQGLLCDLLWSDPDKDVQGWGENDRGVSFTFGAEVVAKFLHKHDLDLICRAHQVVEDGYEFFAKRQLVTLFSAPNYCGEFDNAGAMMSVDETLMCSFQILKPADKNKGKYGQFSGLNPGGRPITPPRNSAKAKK
Description: (§1) PP1c was diluted to the appropriate concentration (as indicated in the figure legends) in dephosphorylation buffer immediately prior to use. Dephosphorylation reactions were carried out by pre-incubating diluted PP1c in the presence or absence of regulatory subunits (either […]), and/or compounds (all at 100 μM, except for Salubrinal which was used at 30 μM), for 15′ at RT. All compounds were diluted in DMSO, and DMSO vehicle was used in all control experiments.
The reaction was initiated by the addition of 1 μM P-eIF2α or ^33P Phosphorylase a substrates and then incubated at 30° C. for 16 h with shaking at 350 rpm. Reactions were stopped by addition of 4× Laemmli sample buffer. eIF2α samples were analyzed by immunoblotting or Phos-tag gels. […] Samples in FIG. 8 and FIG. 16 were run on a 15% SuperSep Phos-tag acrylamide gel (Alpha Laboratories) and visualized by staining with InstantBlue Protein Stain.

[2] = target: T3, PP1 (1 μM) in the presence of R15B (Homo sapiens, UniProt Q5SWA1); experiment: In vitro dephosphorylation of P-eIF2α using stoichiometric PP1c (1 μM) with R15B; assay type: biochemical; conditions: 1 μM PP1c, 1 μM P-eIF2α, 30° C., 16 h; compound 100 μM
T3 construct: PPP1R15B amino acids 340-698 (R15B); His6 (C); made in house; host or cells: E. coli BL21 pLysS (R15B, eIF2α); E. coli BL21/pGro7 (PP1c)
T3 sequence (Q5SWA1 340-698): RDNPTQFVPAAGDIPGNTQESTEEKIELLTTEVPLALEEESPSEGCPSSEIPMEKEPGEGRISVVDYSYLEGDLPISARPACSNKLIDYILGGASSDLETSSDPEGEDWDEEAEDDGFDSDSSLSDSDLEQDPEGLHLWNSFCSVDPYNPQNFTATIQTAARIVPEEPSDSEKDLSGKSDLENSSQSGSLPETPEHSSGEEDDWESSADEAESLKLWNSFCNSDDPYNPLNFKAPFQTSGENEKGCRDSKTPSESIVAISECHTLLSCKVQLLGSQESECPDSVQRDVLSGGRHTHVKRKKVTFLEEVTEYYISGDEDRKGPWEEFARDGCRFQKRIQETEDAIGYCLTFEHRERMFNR
T3 sequence (P62136 7-330 partner limits assumed): as the sequence (P62136 7-330 partner) above
Description: as §1
The reaction was initiated by the addition of 1 μM P-eIF2α or ^33P Phosphorylase a substrates and then incubated at 30° C. for 16 h with shaking at 350 rpm. Reactions were stopped by addition of 4× Laemmli sample buffer. eIF2α samples were analyzed by immunoblotting or Phos-tag gels. P-eIF2α dephosphorylation was analysed by immunoblotting using anti-Phospho-eIF2α (SerS1) (#9721) (Cell Signaling) and anti-eIF2α (ab26197) (AbCam) antibodies. Samples in FIG. 8 and FIG. 16 were run on a 15% SuperSep Phos-tag acrylamide gel (Alpha Laboratories) and visualized by staining with InstantBlue Protein Stain.
As previously reported (Connor et al., 2001), in vitro PP1c alone (1 μM) dephosphorylated eIF2α, and in vitro co-incubation with R15A had no effect in this assay (FIG. 1A). […]

| aggregation of R15A (light scattering at 380 nm) (R15A) | SMILES | cytoprotection from ER stress (HeLa cells) | effect on dephosphorylation of eIF2α by PP1c with R15A [1] | effect on dephosphorylation of eIF2α by PP1c with R15B [2] |
| --- | --- | --- | --- | --- |
| No aggregation | N=C(N)N/N=C/c1c(Cl)cccc1Cl [Guanabenz] | Dose dependent cytoprotection | neither the selective R15A inhibitors, Guanabenz and Sephin1, nor the selective inhibitor of R15B, Raphin1, had any measurable effects |  |
|  | NC(N)=N/N=C/c1cccc(Cl)c1Cl [Raphin1] |  |  | nor the selective inhibitor of R15B, Raphin1, had any measurable effects |
